Data: publication PMC7747594, “Protease-activated receptor-2 ligands reveal orthosteric and allosteric mechanisms of receptor inhibition” (Communications Biology, 2020)

Legend:
[1] = test system: macrophages; experiment: Immunohistochemistry, ED1-positive macrophages in rat paw; type: in vivo; conditions: 30 min after agonist administration
Procedure: Rat paw tissues were collected, fixed in 10% neutral-buffered formalin (Sigma-Aldrich) for 2 h at 4 °C, transferred into falcon tubes containing 25% sucrose in PBS and left overnight at 4 °C. Tissues were then embedded with Optimal Cutting Temperature compound (OCT, Sakura Finetek, USA) and stored at −80 °C before making cryo-sections for histological analysis. Frozen sections (5 µm) were made using a cryostat-microtome (Leica Biosystems, Germany). For mast cell staining, slides were briefly washed with distilled water before staining with 0.1% toluidine blue (Sigma-Aldrich, pH 2.5) for 3 min. Slides were then dehydrated and mounted in DPX mountant (Sigma-Aldrich, USA). For immunohistochemistry, slides were briefly rinsed with PBS to remove OCT. Except for tryptase staining, antigen retrieval was performed by incubating slides in citrate buffer (0.01 M, pH 6) at 95 °C for 20 min. They were then cooled down briefly and incubated with blocking medium (PBS, 0.1% Triton X-100, 10% horse serum) for 1 h at room temperature in a humidity chamber. Samples were incubated with primary antibody medium (PBS, 0.1% Triton X-100, 4% horse serum; 1:100 primary antibody including – histamine, neutrophil elastase or ED1 antibodies) overnight at 4 °C. […] Tryptase-, neutrophil elastase- and ED1-positive cells were quantified using FIJI/ImageJ 1.42q software, USA.

[2] = target: T1, hPAR2 (Homo sapiens, UniProt P55085); experiment: Schild and allosteric model analysis of Ca^2+ mobilisation in CHO-hPAR2 cells (2f-LIGRL-NH2 or trypsin); type: cell-based; conditions: for linear Schild regression slope: Figure R1; for logα / logβ: operational model of allosterism
T1 sequence (P55085 26-397): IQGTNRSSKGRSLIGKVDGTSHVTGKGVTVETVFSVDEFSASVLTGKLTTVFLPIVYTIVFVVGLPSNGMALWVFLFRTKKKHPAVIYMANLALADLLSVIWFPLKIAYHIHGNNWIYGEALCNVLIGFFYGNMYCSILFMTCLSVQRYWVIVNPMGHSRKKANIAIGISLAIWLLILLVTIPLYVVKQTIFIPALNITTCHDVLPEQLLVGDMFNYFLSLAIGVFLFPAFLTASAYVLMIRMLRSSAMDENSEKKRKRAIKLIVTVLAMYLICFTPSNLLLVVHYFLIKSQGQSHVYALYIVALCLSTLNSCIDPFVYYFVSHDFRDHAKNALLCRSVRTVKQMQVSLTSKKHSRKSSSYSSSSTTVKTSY
Procedure: Cells were loaded with Fluo-8 NW calcium dye (AAT Bioquest) for 30 min at 37 °C before compounds in Hank’s balanced salt solution (HBSS, ThermoFisher Scientific) with 20 mM HEPES (ThermoFisher Scientific), 0.1% bovine serum albumin (BSA, Sigma) and 0.5% DMSO were added and simultaneously evaluated for changes in intracellular [Ca^2+] using FLIPR TETRA (Molecular Devices) to detect agonism. For each concentration, the difference between the maximum peak Ca^2+ response and baseline response is reported. […] Antagonism experiments were also carried out on 1321N1-PAR2[WT], 1321N1-PAR2[F154A], and 1321N1-PAR2[G157C] as described. Experiments with trypsin in 1321N1-hPAR2 cells were performed in the presence of 1 µM Vorapaxar (Chemtronica) to remove any interference of PAR1 activity. […] Antagonism experiments for CHO-hPAR2 and HT-29 cells were performed in 96-well plates at 30,000 cells/well. Cells were loaded with Fluo-3 AM calcium dye (Sigma-Aldrich) for 60 min at 37 °C in HBSS with 1% FBS, 0.2% pluronic acid, 20 mM HEPES and 2.5 mM probenecid prior to the addition of antagonist. The antagonist was pre-incubated for 60 min at 37 °C followed by the addition of bovine trypsin (30 nM) at EC80. Intracellular [Ca^2+] flux was measured using FLIPR TETRA (Molecular Devices) and the difference between the maximum peak Ca^2+ response and baseline response is reported.
Binding data were analysed using the One site – Fit Ki model in GraphPad Prism 8 (GraphPad Software) to determine binding affinity. Pharmacology in vitro potency data was analysed with a 4-parameter logistic fit using the equation y = Bottom + (Top − Bottom)/[…] where y is the response, x is the 10-logarithm of the drug concentration, Bottom is no response and Top is full response in GraphPad Prism 8 or Genedata Screener (Genedata). pEC50 and pIC50 data are presented as mean ± standard error of the mean (s.e.m.) derived from the number of independent experiments stated. Schild slope analysis was calculated using Graphpad Prism 8 Gaddum/Schild EC50 global fitting (shared model parameters between all data sets) competitive model. […] Schild slope quantifies the shifts in agonist response in the presence of antagonist, a Schild slope of 1 indicates the antagonist is competitive and extra-sum-of-squares F-test (p < 0.05) was used to compare the calculated Schild slope against a hypothetical Schild slope of 1. […] The relative activity was calculated using (EmaxEC50’)/(Emax’EC50) with the Hill slope help constant at 1. EC50’ and Emax’ denote the EC50 and Emax in the absence of allosteric modulator, while EC50 and Emax denote those measured in the presence of allosteric modulator. When the Hill slope = 1, the relative activity plot approaches an asymptote corresponding to the estimate of the γ value.

[3] = against 2f-LIGRL-NH2, Gaddum/Schild EC50 global fitting, CHO-hPAR2 cells
[4] = against trypsin, Gaddum/Schild EC50 global fitting, CHO-hPAR2 cells
[5] = 2f-LIGRL-NH2, Ca^2+ mobilisation

For `C[C@@H](C1CCCCC1)n1c(-c2cc3c(cc2Br)OCO3)nc2cc(C(=O)Nc3ccc(C#N)cc3)ccc21` [AZ3451], the “number of ED1 +ve cells in rat paw tissue compared to sham” value [1] was “no significant difference”, the “γ value estimated from relative activity” value ([2]; 2f-LIGRL-NH2) was 0.002 and the “linear Schild regression slope” value ([2]; 2f-LIGRL-NH2, CHO-hPAR2 cells) was 0.4. It also gave a Schild slope [2, 3] of 0.4, a Schild slope [2, 4] of 0.3 and a logα [2, 5] of −1.98 ± 0.11. The logβ [2, 5] was −0.28 ± 0.07, the logα ([2]; trypsin, Ca^2+ mobilisation) was −1.19 ± 0.07 and the logβ ([2]; trypsin, Ca^2+ mobilisation) was −0.66 ± 0.08. The “γ value estimated from relative activity” value ([2]; trypsin) was 0.09 and the “linear Schild regression slope” value ([2]; trypsin, CHO-hPAR2 cells) was 0.2.
With `CCCc1cc(F)ccc1C(O)c1ncc[nH]1` (stereo not shown) [AZ8838] the “number of ED1 +ve cells in rat paw tissue compared to sham” value [1] was “no significant difference”, the “linear Schild regression slope” value ([2]; 2f-LIGRL-NH2, CHO-hPAR2 cells) was 1.0 and the Schild slope [2, 3] was 1.1. For the same compound, the Schild slope [2, 4] was 0.9 and the “linear Schild regression slope” value ([2]; trypsin, CHO-hPAR2 cells) was 0.8.
